Results: patent publication US7488712B2, “Histone deacetylase inhibitors and methods for producing the same” (Kyushu Institute of Technology, priority 2002, dated 2009)
*1 amine or outer side, *2 acyl side, *3 side chain or, on linkers, in order; H or OH if unused. Where a SMILES comes first, the peptide text is derived from it. Bridges are numbered along the chain shown (N, C = ends). Roman numbers before positions name the chains, in order. [ ]: non-standard residue; d: D form. The star is where a group is joined. hNle(7-SH) = O=C([C@H](CCCCCS[*:3])N[*:1])[*:2]; X1 = CN(C)C(=O)c1cc(S*)ccc1[N+](=O)[O-]; Gly((CH2)5SH) = N[C@@H](CCCCCS)C(=O)O; Pip = O=C(O)[C@@H]1CCCCN1; dPip = O=C(O)[C@H]1CCCCN1

Legend:
[1] = biological target: T1, human HDAC1 (Homo sapiens, UniProt Q13547); experiment: In vitro HDAC inhibition activity, [3H]-acetylated histone substrate, HDAC1; format: biochemical
T1 construct: FLAG; made in house; host or cells: 293T cells (transient transfection, anti-FLAG immunoprecipitation, FLAG peptide elution)
T1 sequence (Q13547 whole entry): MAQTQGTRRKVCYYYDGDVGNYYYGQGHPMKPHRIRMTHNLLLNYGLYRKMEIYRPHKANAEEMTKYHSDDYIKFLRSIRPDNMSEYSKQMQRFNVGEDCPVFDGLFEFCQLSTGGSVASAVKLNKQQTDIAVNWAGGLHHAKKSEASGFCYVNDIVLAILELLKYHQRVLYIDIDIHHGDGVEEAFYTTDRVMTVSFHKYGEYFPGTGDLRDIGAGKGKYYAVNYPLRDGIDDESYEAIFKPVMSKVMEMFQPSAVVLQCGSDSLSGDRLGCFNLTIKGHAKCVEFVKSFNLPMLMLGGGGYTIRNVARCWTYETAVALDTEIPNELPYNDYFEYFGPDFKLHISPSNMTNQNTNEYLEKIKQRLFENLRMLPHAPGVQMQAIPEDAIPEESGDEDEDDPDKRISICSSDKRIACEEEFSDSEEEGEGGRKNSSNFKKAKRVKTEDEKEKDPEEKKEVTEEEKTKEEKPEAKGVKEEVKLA
Method: (§1) To measure HDAC inhibition activity, an HDAC solution was prepared as described below. 1×10^7 of 293T cells were plated on to a 100-mm dish and, after 24 hours, transfected with vectors (1 μg) expressing human HDAC1 and HDAC4 or mouse HDAC6, using LipofectAmine 2000 reagent (Life Technologies, Inc. Gaithersburg, Md.). […] The vectors were introduced for five hours in OPTI-MEM. The medium was then replaced with Dulbecco's modified Eagle's medium (DMEM), and incubated for 19 hours. The cells were washed with PBS, suspended in lysis buffer (50 mM Tris-HCl (pH7.5), 120 mM NaCl, 5 mM EDTA, and 0.5% Nonidet P-40), and sonicated. The supernatant was collected by centrifugation and nonspecific protein was removed using Protein A/G plus agarose beads (Santa Cruz Biotechnologies, Inc.). Anti-FLAG M2 antibodies (Sigma-Aldrich, Inc.) were added to the supernatant of cells expressing HDAC1 or HDAC4. Anti-HA antibodies (clone 3F10, Roche Molecular Biochemicals) were added to the supernatant of cells expressing HDAC6. Reaction in the respective mixtures was carried out at 4° C. for one hour. The resulting reaction mixtures were independently mixed with agarose beads and further reacted at 4° C. for one hour. The agarose beads were washed three times with lysis buffer and then washed once with HD buffer (20 mM Tris-HCl (pH8.0), 150 mM NaCl, 10% glycerol, and a complete protease inhibitor cocktail (Boehringer Mannheim, Germany)). […] The HDAC reaction solution was used for determining HDAC inhibition activity as shown below.
(§2) In vitro HDAC inhibition activity was evaluated as follows: A test compound was dissolved in DMSO and adjusted to 10 mM. This was used as an inhibitor stock solution. […] These reactions were stopped by adding 10 μl HCl. The [^3H] acetic acid excised by the enzyme reaction was extracted with ethyl acetate and subjected to radioactive dose measurement. As a negative control, the same procedure was carried out in which no inhibitor was added to the reaction system. The inhibition activity was expressed as a 50% inhibition concentration (“IC50 (nM)”) of the HDAC activity in the negative control (Tables 1 to 4).

[2] = biological target: T2, human HDAC4 (Homo sapiens, UniProt P56524); experiment: In vitro HDAC inhibition activity, [3H]-acetylated histone substrate, HDAC4; format: biochemical
T2 construct: FLAG; made in house; host or cells: 293T cells (transient transfection, anti-FLAG immunoprecipitation, FLAG peptide elution)
T2 sequence (O15379 whole entry partner): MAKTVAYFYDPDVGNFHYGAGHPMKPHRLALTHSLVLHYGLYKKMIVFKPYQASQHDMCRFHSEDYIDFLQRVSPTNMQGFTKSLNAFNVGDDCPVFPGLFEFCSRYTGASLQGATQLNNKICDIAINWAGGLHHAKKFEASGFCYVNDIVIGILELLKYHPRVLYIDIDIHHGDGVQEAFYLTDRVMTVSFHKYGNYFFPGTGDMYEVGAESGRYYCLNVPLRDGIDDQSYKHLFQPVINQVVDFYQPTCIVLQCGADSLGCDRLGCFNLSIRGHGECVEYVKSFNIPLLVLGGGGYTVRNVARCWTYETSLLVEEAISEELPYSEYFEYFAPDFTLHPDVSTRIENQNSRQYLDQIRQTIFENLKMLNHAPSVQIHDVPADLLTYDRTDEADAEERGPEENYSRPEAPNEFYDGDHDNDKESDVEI
T2 sequence (P56524 whole entry): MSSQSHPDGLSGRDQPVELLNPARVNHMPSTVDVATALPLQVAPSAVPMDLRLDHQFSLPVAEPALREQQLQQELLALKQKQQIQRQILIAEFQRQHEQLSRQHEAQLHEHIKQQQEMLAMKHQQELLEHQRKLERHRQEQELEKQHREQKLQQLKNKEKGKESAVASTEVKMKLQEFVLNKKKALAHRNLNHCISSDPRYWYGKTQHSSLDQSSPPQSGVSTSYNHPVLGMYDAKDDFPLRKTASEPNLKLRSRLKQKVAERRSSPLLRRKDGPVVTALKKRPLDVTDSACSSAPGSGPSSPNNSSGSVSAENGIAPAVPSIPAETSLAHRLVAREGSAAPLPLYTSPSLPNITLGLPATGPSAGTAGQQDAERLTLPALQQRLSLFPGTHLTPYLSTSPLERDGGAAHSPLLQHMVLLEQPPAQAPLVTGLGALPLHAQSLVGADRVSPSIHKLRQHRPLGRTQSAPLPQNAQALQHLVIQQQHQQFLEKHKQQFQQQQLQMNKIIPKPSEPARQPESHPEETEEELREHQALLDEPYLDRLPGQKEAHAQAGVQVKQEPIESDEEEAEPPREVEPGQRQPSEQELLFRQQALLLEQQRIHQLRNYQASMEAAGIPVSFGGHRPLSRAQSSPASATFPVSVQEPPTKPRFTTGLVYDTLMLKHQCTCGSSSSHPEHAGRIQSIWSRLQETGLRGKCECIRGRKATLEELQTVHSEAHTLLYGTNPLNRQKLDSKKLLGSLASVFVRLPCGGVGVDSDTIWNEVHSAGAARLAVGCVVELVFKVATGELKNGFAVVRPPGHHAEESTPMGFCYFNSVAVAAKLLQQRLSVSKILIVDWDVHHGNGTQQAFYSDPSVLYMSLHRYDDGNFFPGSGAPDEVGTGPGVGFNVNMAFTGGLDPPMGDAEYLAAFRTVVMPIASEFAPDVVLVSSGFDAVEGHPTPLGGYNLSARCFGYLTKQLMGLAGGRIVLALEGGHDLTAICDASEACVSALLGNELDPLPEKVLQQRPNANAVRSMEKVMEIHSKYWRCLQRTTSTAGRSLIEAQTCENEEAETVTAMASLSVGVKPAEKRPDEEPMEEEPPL
Method: as §1, §2

[3] = biological target: T3, mouse HDAC6 (Mus musculus, UniProt Q9Z2V5); experiment: In vitro HDAC inhibition activity, [3H]-acetylated histone substrate, HDAC6; format: biochemical
T3 construct: HA; made in house; host or cells: 293T cells (transient transfection, anti-HA immunoprecipitation, HA peptide elution)
T3 sequence (Q9Z2V5 1-1149): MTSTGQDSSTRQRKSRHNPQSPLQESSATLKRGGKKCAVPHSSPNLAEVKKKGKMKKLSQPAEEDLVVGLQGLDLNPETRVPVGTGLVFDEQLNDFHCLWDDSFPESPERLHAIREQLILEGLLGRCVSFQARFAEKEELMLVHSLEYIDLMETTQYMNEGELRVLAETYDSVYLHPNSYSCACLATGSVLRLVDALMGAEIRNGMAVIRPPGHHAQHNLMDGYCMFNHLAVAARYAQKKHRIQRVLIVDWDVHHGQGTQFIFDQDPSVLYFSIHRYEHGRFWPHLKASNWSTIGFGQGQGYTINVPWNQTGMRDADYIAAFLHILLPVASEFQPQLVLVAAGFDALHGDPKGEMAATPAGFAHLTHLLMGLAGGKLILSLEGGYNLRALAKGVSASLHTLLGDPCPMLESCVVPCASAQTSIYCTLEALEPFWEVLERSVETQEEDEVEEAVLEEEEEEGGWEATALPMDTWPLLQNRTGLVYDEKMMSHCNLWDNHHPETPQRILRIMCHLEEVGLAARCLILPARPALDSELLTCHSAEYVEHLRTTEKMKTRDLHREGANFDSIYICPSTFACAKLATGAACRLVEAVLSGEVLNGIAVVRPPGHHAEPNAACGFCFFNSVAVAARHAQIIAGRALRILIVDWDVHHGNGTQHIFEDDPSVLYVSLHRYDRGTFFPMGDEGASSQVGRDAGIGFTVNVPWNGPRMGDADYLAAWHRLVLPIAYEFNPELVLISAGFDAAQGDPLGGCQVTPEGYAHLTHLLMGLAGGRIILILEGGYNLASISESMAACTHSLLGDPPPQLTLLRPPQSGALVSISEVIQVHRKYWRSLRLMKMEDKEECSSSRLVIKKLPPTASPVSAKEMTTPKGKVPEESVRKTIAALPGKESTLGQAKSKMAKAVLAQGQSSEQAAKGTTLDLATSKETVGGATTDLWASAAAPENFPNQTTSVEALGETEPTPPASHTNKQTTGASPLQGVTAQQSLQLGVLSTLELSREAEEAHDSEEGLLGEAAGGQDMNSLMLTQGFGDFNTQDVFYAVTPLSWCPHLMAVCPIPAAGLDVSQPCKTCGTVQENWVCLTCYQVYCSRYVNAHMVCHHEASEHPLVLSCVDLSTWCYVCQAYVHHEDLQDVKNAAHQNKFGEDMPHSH
Method: as §1, §2

[4] = test system: human wild-type p21 promoter; experiment: p21 promoter-inducing activity (luciferase) in MFLL-9 cells; format: cell-based
Method: The HDAC inhibition activity in vivo was measured using p21 promoter-inducing activity as an index, as shown below. The MFLL-9 cells employed for the experiments stably maintained fusion genes of human wild-type p21 promoter and luciferase (Dr. B. Vogelstaein). Using phenol red-free DMEM medium comprising 10% FBS, cultivation was carried out in a steam-saturated incubator at 37° C. with 5% carbon dioxide. The MFLL-9 cells were plated at a density of 85,000 cells/well on a 96-well microtiter plate, each in 99 μl of the above-mentioned medium. These were then cultivated for six hours. One μl of test compound solution was added to each well, which was then cultured for another 18 hours.
The intensity of luminescence caused by the product of the enzyme reaction for intracellular luciferase expression was measured using Luc Lite (Packard BioScience Company). A group in which test compounds were not added was used as a negative control group. The values measured for this group were used as a standard. The activities for each concentration of added test compound were expressed relative to the above-mentioned standard value, 1.

[5] = Table 3, hybrid with DTT (/DTT)
[6] = Table 1, X = H (coexisting with DTT)
[7] = Table 1, X = H (coexisting with DTT), 50% of maximum active value for TSA

`CC[C@H](C)[C@@H]1NC(=O)[C@@H](Cc2ccc(OC)cc2)NC(=O)[C@H](CCCCCSSCCCCC[C@@H]2NC(=O)[C@H]3CCCCN3C(=O)[C@H]([C@@H](C)CC)NC(=O)[C@@H](Cc3ccc(OC)cc3)NC2=O)NC(=O)[C@H]2CCCCN2C1=O` [SCOP 300, cyclo(-L-Am7(-)-D-Tyr(Me)-L-Ile-D-Pip-] (I: cyclo([hNle(7-SH)][dY](Me)I[dPip]) / II: cyclo([hNle(7-SH)][dY](Me)I[dPip]); disulfide I:1-II:1) gave an IC50 ([1]; Table 2, homodimer) of 61.1 nM, an IC50 ([2]; Table 2, homodimer) of 36.2 nM and an IC50 ([3]; Table 2, homodimer) of 255000 nM. It also gave an EC50 ([4]; Table 2, homodimer) of 7.37 µM.
Work on `CC[C@H](C)[C@@H]1NC(=O)[C@@H](Cc2ccc(OC)cc2)NC(=O)[C@H](CCCCCSSc2ccc([N+](=O)[O-])c(C(=O)N(C)C)c2)NC(=O)[C@H]2CCCN2C1=O` [SCOP 403, cyclo(-L-Am7(SEll)-D-Tyr(Me)-L-Ile-D-Pro-)] (cyclo([hNle(7-SH)](X1)[dY](Me)I[dP])) yielded an IC50 [1, 5] of 1.15 nM, an IC50 ([1]; Table 3, hybrid, without DTT) of 21.5 nM and an IC50 [2, 5] of 1.53 nM. For the same compound, the IC50 ([2]; Table 3, hybrid, without DTT) was 18.9 nM, the IC50 [3, 5] was 4730 nM and the IC50 ([3]; Table 3, hybrid, without DTT) was 6080 nM. It also gave an EC50 [4, 5] of 0.748 µM and an EC50 ([4]; Table 3, hybrid, without DTT) of 1.8 µM.
`CC[C@H](C)[C@@H]1NC(=O)[C@@H](Cc2ccc(OC)cc2)NC(=O)[C@H](CCCCCCSSCCCCCC[C@@H]2NC(=O)[C@H]3CCCN3C(=O)[C@H]([C@@H](C)CC)NC(=O)[C@@H](Cc3ccc(OC)cc3)NC2=O)NC(=O)[C@H]2CCCN2C1=O` [SCOP 306, cyclo(-L-Am8(-)-D-Tyr(Me)-L-Ile-D-Pro-] gave an IC50 ([1]; Table 2, homodimer) of 153 nM, an IC50 ([2]; Table 2, homodimer) of 319 nM and an IC50 ([3]; Table 2, homodimer) of 1.32e+06 nM.
For `CC[C@H](C)[C@@H]1NC(=O)[C@@H](Cc2ccc(OC)cc2)NC(=O)[C@H](CCCCCCCSSCCCCCCC[C@@H]2NC(=O)[C@H]3CCCN3C(=O)[C@H]([C@@H](C)CC)NC(=O)[C@@H](Cc3ccc(OC)cc3)NC2=O)NC(=O)[C@H]2CCCN2C1=O` [SCOP 308, cyclo(-L-Am9(-)-D-Tyr(Me)-L-Ile-D-Pro-], the IC50 ([1]; Table 2, homodimer) was 983 nM, the IC50 ([2]; Table 2, homodimer) was 505 nM and the IC50 ([3]; Table 2, homodimer) was 745000 nM. It also gave an EC50 ([4]; Table 2, homodimer) of 235 µM.
Compound `CC[C@H](C)[C@@H]1NC(=O)[C@@H](Cc2ccc(OC)cc2)NC(=O)[C@H](CCCCCSSCCCCC[C@@H]2NC(=O)[C@@H]3CCCCN3C(=O)[C@H]([C@@H](C)CC)NC(=O)[C@@H](Cc3ccc(OC)cc3)NC2=O)NC(=O)[C@@H]2CCCCN2C1=O` [SCOP 298, cyclo(-L-Am7(-)-D-Tyr(Me)-L-Ile-L-Pip-] (I: cyclo([hNle(7-SH)][dY](Me)I[Pip]) / II: cyclo([hNle(7-SH)][dY](Me)I[Pip]); disulfide I:1-II:1) has an IC50 ([1]; Table 2, homodimer) of 114 nM, an IC50 ([2]; Table 2, homodimer) of 33.7 nM and an IC50 ([3]; Table 2, homodimer) of 418000 nM. It also gave an EC50 ([4]; Table 2, homodimer) of 5.8 µM.
For “cyclo(-L-Am7(S2Py)-D-Tyr(Me)-L-Ile-D-Pro-) [SCOP 401]”, the EC50 [4, 5] was 0.815 µM and the EC50 ([4]; Table 3, hybrid, without DTT) was 1.36 µM.
`CC[C@H](C)[C@@H]1NC(=O)[C@@H](Cc2ccc(OC)cc2)NC(=O)[C@H](CCCCCCS)NC(=O)[C@H]2CCCN2C1=O` [SCOP 153] showed an IC50 [1, 6] of 9.13 nM, an IC50 [2, 6] of 91 nM and an IC50 [3, 6] of 8050 nM. It also gave an EC50 [4, 7] of 9.85 µM.
In the case of `CC[C@H](C)[C@@H]1NC(=O)[C@@H](Cc2ccc(OC)cc2)NC(=O)[C@H](CCCCCS)NC(=O)[C@@H]2CCCN2C1=O` [SCOP 148] (cyclo([Gly((CH2)5SH)][dY](Me)IP)), the IC50 [1, 6] is reported as 81.4 nM, the IC50 [2, 6] is reported as 17 nM and the IC50 [3, 6] is reported as > 500000 nM. The EC50 [4, 7] was 6.72 µM.
